According to patent US5935636A, “Trehalose and its production and use” (Kabushiki Kaisha Hayashibara Seibutsu Kagaku Kenkyujo, priority 1994, dated 1999):
Structures can show the parent of a compound that is named as a salt. Where two headings read alike, the source gives them in different places.

Key:
[1] = system: purified enzyme from Pseudomonas putida H262; assay: Action on a variety of saccharides (substrate feasibility, TLC); assay type: biochemical; settings: method of Experiment 4, reaction temperature 35° C.
Description: (§1) A variety of saccharides were tested for feasibility as substrate.
(§2) Each solution was added with 2 units/g substrate solid of a purified maltose/trehalose conversion enzyme obtained by the method in Experiment 2, adjusted to give respective substrate concentrations of 5 w/v % and reacted at 20° C. and pH7.0 for 24 hours. Before and after the reaction the solutions were subjected to thin-layer chromatography (TLC) on "[…] 60", an aluminum plate, width and length of 20 cm respectively, commercialized by Merck & Co., Inc., New Jersey, USA, to check the enzymatic action on respective saccharides. TLC was developed at ambient temperature with a mixture solvent of 1-butanol, pyridine and water (6:4:1 by volume). Coloration was carried out by first spraying 20% sulfuric acid/methanol solution, then heating at 110° C. for 10 minutes.
A variety of saccharides were tested for feasibility as substrate for the purified enzyme from Pseudomonas putida H262 obtained in Experiment 10 in accordance with the method in Experiment 4 except that the reaction temperature was set to 35° C. As the result, like the enzyme from Pimelobacter species R48, the enzyme from Pseudomonas putida H262 acted on only maltose and trehalose to convert maltose to trehalose as well as to convert trehalose to maltose.

[2] = target: T1, purified maltose/trehalose conversion enzyme from Pimelobacter species R48 (Pimelobacter sp., UniProt P72235); assay: as above; assay type: biochemical; settings: 20° C., pH7.0, 24 hours
T1 construct: The culture obtained in Experiment 1 was centrifugally separated to collect the cells; made in house; host or cells: native producer Pimelobacter species R48 (FERM BP-4315), purified from disrupted cells
T1 sequence (P72235 1-573): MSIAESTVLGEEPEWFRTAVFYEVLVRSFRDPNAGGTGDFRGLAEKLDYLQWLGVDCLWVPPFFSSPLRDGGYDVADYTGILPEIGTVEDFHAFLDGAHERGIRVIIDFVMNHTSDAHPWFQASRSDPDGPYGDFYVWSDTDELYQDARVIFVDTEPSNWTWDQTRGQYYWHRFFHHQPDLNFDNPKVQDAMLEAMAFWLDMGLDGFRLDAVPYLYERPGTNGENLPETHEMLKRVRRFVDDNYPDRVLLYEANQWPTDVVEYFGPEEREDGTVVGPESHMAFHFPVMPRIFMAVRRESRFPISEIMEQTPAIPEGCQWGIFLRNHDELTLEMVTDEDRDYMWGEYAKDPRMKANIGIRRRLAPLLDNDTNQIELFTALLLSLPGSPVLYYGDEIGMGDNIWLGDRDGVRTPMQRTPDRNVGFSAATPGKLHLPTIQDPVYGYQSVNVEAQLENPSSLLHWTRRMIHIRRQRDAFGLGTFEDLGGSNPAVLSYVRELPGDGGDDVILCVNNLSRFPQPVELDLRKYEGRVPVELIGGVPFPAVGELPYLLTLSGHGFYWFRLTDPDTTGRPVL
Description: as §1, §2

[3] = system: partially-purified enzymes derived from conventional microorganisms of the genus Thermus; assay: Action on a variety of saccharides, partially-purified enzymes; assay type: biochemical; settings: method of Experiment 18
Description: Among conventional microorganisms, the specified microorganisms which had been confirmed for production of the maltose/trehalose conversion enzyme according to the present invention were cultivated in flasks for 48 hours in accordance with the method in Experiment 15. Respective cultures were checked for enzymatic activity and then subjected to cell disrupter in accordance with the method in Experiment 16 and the supernatants were dialyzed to obtain partially-purified enzymes which were then investigated for properties in accordance with the method in Experiment 17.

[4] = target: T2, maltose/trehalose conversion enzyme derived from Pimelobacter species R48 (Pimelobacter sp., UniProt P72235); assay: Inhibition of enzymatic activity; assay type: biochemical
T2 construct: The culture obtained in Experiment 1 was centrifugally separated to collect the cells; made in house; host or cells: native producer Pimelobacter species R48 (FERM BP-4315), purified from disrupted cells
T2 sequence (P72235 1-573): T1 sequence (P72235 1-573)
Description: (§3) Maltose/trehalose conversion enzymes are assayed as follows: 1 ml of 20 w/v % maltose as substrate in 10 mM phosphate buffer (pH7.0) is added with 1 ml enzyme liquid, allowed to react at 25° C., 35° C. or 60° C. for 60 minutes and heated at 100° C. for 10 minutes to suspend the reaction. The reaction liquid is accurately diluted by 11-times in 50 mM phosphate buffer (pH7.5) and 0.4 ml of the diluted liquid is added with 0.1 ml of 1 unit/ml trehalase solution, incubated at 45° C. for 120 minutes and determined for glucose level by the glucose oxidase method. […] The amount of the trehalose formed by maltose/trehalose conversion enzyme is estimated with the increased amount of glucose as determined by the above measurement and one unit of the enzyme is defined as the amount of enzyme that forms one micromole of trehalose for one minute.
Effects of temperature and pH on the activity of the enzyme were investigated in accordance with the assay method. […] The thermal stability of the enzyme was determined by incubating the enzyme in 50 mM phosphate buffer (pH7.0) at different temperatures for 60 minutes, cooling with water and assaying the residual activities. While the pH stability was determined by incubating at 20° C. for 60 minutes in 50 mM phosphate buffer with different pH levels, adjusting to pH7.0 and assaying the residual enzyme activities.

[5] = system: maltose/trehalose conversion enzyme derived from Pseudomonas putida H262; assay type: biochemical
Description: as §3
Effects of temperature and pH on the activity of the enzyme were investigated in accordance with the assay method. […] The thermal stability of the enzyme was determined by incubating the enzyme in 50 mM phosphate buffer (pH7.0) at different temperatures for 60 minutes, cooling with water and assaying the residual activities. While the pH stability was determined by incubating at 35° C. for 60 minutes in 50 mM phosphate buffer with different pH levels, adjusting to pH7.0 and assaying the residual enzyme activities.

[6] = target: T3, maltose/trehalose conversion enzyme derived from Thermus aquaticus (ATCC33923) (Thermus thermophilus, UniProt O06458); assay: Inhibition of enzymatic activity; assay type: biochemical
T3 construct: The culture obtained in Experiment 15 was centrifugally separated to collect the cells; made in house; host or cells: native producer Thermus aquaticus (ATCC33923), purified from disrupted cells
T3 sequence (O06458 1-963): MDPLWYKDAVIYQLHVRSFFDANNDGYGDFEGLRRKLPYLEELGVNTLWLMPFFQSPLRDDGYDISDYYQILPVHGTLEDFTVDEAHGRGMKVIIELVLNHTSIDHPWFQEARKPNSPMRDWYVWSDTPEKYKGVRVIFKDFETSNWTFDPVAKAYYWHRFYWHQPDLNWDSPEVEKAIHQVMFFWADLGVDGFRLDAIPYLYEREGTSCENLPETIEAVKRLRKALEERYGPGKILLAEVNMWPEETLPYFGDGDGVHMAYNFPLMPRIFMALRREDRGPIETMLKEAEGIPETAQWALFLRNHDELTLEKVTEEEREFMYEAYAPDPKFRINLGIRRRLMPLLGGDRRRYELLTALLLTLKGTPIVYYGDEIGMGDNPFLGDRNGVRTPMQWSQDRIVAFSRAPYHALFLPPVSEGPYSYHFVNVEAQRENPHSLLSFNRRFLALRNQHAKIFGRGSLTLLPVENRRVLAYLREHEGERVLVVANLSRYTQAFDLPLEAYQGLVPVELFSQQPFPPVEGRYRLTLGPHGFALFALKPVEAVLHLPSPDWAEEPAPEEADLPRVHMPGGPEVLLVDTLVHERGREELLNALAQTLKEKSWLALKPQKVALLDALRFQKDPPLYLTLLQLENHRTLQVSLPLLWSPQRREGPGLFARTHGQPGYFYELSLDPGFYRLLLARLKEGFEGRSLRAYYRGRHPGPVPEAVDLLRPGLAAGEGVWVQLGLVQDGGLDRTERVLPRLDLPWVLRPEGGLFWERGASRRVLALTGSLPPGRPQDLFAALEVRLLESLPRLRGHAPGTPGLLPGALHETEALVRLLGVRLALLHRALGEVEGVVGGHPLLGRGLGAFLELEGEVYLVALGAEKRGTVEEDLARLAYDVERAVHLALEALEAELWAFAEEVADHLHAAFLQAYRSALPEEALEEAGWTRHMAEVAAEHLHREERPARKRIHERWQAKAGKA
Description: as §3
Effects of temperature and pH on the activity of the enzyme were investigated in accordance with the assay method. […] The thermal stability of the enzyme was determined by incubating the enzyme in 50 mM phosphate buffer (pH7.0) at different temperatures for 60 minutes, cooling with water and assaying the residual activities. While the pH stability was determined by incubating at 60° C. for 60 minutes in 50 mM phosphate buffer with different pH levels, adjusting to pH7.0 and assaying the residual enzyme activities.

mice = assay: Acute toxicity test; assay type: in vivo; settings: orally administered in mice, possible highest dose
Description: An acute toxicity test was conducted on a high-purity trehalose prepared in Example A-6, where it was orally administered in mice. As the result, trehalose was a low toxic substance causing no death even in the possible highest dose. Thus its LD50 would be briefly 50 g/kg or higher.

[7] = Test for assimilation in vivo (blood sugar and insulin levels); settings: healthy three men
Description: In accordance with the method reported by Atsuji et al., Rinsho Eiyo (Clinical Nutrition), Vol.41, No.2, pp.200-208 (1972), 30g of the high-purity trehalose, purity of 99.8%, prepared in Experiment 8 was prepared into 20 w/v % aqueous solution and orally administered to healthy three men, age of 26, 27 and 30 years, after which their bloods were periodically sampled and measured for blood sugar and insulin levels. Glucose was used as control. […] Thus the trehalose and saccharide containing the same are suitable as saccharide source for energy supplement.

[8] = Physicochemical properties of trehalose preparations: solubility; settings: in 25° C. water
Description: A high-purity trehalose prepared by the method in Experiment 8 was tested for physicochemical properties. […] These physical values were in good agreement with those of a simultaneously tested commercially-available crystalline trehalose hydrate, a product of Wako Pure Chemical Industries, Ltd., Osaka, Japan.

[9] = 30 g as 20 w/v % aqueous solution, oral

Row | Structure (SMILES) | action of the enzyme on saccharides (in words) [1] | action of the enzyme on saccharides (in words) [2] | action of the enzymes on saccharides (in words) [3] | Inhibition of activity ([4]; 1 mM) | Inhibition of activity ([5]; 1 mM) | Inhibition of activity ([6]; 1 mM) | also measured
1 | OC[C@H]1O[C@H](O[C@H]2[C@H](O)[C@@H](O)[C@H](O)O[C@@H]2CO)[C@H](O)[C@@H](O)[C@@H]1O [Maltose] | acted on | acted on | acted on | – | – | – | –
2 | [Hg+2] [Hg^2+] | – | – | – | Inhibited | Inhibited | Inhibited | –
3 | [Cu+2] [Cu^2+] | – | – | – | Inhibited | Inhibited | Inhibited | Inhibition of activity ([6]; 1 mM, listed as C^2+): inhibited
4 | OC[C@H]1O[C@H](O[C@H]2O[C@H](CO)[C@@H](O)[C@H](O)[C@H]2O)[C@H](O)[C@@H](O)[C@@H]1O [trehalose, alpha,alpha-trehalose] | acted on | acted on | acted on | – | – | – | death in acute toxicity test (mice): no death; time at which blood sugar level reached maximum after administration [7, 9]: 0.5 to 1 h; time at which insulin level reached maximum after administration [7, 9]: 0.5 to 1 h; digestion, absorption and utilization (in words) ([7]; 30 g oral, glucose as control): readily digested and absorbed and then metabolized and utilized as energy source; solubility as anhydrous substance [8]: 77.0 g
5 | NC(CO)(CO)CO [Tris-HCl buffer, Tris-HCl] | – | – | – | – | – | – | Inhibition of activity [4]: Inhibited; Inhibition of activity [5]: Inhibited; Inhibition of activity [6]: Inhibited
